Consider eleven molecules from patent US7659394B2 (Pfizer Inc, priority 2004, dated 2010).

As a reminder, the Ki is the dissociation constant of the complex between target and ligand, obtained from inhibition or displacement. What is called melting point is the temperature of the solid-liquid transition.

Structures are written as SMILES.

The target in data set [1] is T1, human norepinephrine transporter (Homo sapiens, UniProt P23975).
T1 construct: host or cells: HEK-293
Kind of data set: hNET receptor binding ([125I]-RTI-55 radioligand binding). As to conditions: membranes of HEK-293 cells transfected with human norepinephrine transporter, IC50 converted to Ki by Cheng-Prusoff, read-out: hNET (Ki). The method, boiled down: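 Membranes from HEK-293 cells transfected with human NET. Nonspecific binding defined with 10 μM desipramine, duplicates. IC50 by nonlinear regression, converted to Ki with Cheng-Prusoff.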

In data set [2] the target is T2, human seritonin transporter (Homo sapiens, UniProt P31645).
T2 construct: host or cells: HEK-293
T2 sequence (P31645 whole entry): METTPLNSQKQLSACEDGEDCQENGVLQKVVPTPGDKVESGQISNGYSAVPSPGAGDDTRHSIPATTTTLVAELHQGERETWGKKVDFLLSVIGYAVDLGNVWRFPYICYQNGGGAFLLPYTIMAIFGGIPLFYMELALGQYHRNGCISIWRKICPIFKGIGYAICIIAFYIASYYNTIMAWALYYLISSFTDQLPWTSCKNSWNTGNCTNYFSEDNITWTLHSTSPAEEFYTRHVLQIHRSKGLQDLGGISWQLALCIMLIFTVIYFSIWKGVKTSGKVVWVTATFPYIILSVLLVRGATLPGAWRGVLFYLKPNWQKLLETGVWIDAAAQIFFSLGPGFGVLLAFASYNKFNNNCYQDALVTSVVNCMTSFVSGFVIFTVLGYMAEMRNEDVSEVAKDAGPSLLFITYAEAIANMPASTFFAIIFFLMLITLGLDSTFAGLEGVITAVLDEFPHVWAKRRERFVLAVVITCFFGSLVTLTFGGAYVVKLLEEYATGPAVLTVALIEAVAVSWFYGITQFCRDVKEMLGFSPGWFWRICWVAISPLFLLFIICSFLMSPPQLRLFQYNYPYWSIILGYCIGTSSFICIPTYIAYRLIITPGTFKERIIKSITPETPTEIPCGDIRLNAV
Kind of data set: hSERT receptor binding ([125I]-RTI-55 radioligand binding). The note with it: membranes of HEK-293 cells transfected with human seritonin transporter, IC50 converted to Ki by Cheng-Prusoff, read-out: SERT (Ki).

T1 sequence (P23975 whole entry): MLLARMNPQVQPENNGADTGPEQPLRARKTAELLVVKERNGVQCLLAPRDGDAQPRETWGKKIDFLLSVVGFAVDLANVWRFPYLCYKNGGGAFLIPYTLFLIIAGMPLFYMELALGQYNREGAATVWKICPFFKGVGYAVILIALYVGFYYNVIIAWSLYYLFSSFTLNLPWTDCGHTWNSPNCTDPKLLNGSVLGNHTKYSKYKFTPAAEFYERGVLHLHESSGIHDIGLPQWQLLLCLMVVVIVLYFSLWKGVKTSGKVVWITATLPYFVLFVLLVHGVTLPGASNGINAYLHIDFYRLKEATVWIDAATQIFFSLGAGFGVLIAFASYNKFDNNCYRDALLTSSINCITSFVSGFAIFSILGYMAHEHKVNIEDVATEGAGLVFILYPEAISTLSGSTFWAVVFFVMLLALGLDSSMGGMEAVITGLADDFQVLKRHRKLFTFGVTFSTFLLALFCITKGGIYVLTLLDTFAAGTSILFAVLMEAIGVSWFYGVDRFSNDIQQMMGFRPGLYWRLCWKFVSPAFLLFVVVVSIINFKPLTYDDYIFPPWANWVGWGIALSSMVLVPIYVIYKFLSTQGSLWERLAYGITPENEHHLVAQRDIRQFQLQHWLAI

The molecule `Oc1ccccc1O[C@@H](c1ccccc1)[C@@H]1CNCCO1` [Example 50, (2S,3S)-2-(Morpholin-2-yl-phenyl-methoxy)-phenol] had a melting point of 156 to 158 °C. The inhibition constant (Ki) in data set [1] is 5.2 nM. In data set [2], the inhibition constant Ki is 6260 nM.

For the molecule `Fc1ccccc1OC(c1ccccn1)[C@@H]1CNCCO1` (single isomer, unassigned) [Example 120], the Ki was 10 nM in data set [1] and at least 10000 nM in data set [2].

On to `CCc1ccccc1O[C@@H](c1ccccc1)[C@@H]1CNCCO1` [Example 98, (2S)-2-[(S)-(2-ethylphenoxy)(phenyl)methyl]morpholine], for which the inhibitory constant (Ki) came out at 22 nM in data set [1] and 1140 nM in data set [2].

Take `Fc1ccc([C@H](Oc2ccccc2Br)[C@H]2CNCCO2)cc1` [Example 47, (R)-2-[(S)-(2-Bromo-phenoxy)-(4-fluoro-phenyl)-methyl]-morpholine]: the Ki in data set [1] was found to be 8.4 nM; in data set [2], 52 nM.

As to `Cc1ccc(-c2cc(F)ccc2OCC2CNCCO2)cc1` (single isomer, unassigned) [Example 75], the results for the Ki in data set [1] and in data set [2] were 22 nM and 849 nM, respectively.

As to `c1ccc([C@H](Oc2ccccc2C2CCCCC2)[C@@H]2CNCCO2)cc1` [Example 56, (S)-2-[(S)-(2-Cyclohexyl-phenoxy)-phenyl-methyl]-morpholine], the inhibitory constant (Ki) in data set [1] came to 41 nM; in data set [2], 2460 nM.

Consider `c1ccc([C@H](Oc2cccnc2OCC2CC2)[C@@H]2CNCCO2)cc1` [Example 192, (2S)-2-[(S)-{[2-(cyclopropylmethoxy)pyridin-3-yl]oxy}(phenyl)methyl]morpholine], for which the figures for the Ki in data set [1] and in data set [2] were 38 nM and 1880 nM, respectively.

With `c1ccc([C@H](Oc2ccccc2C2CCCC2)[C@@H]2CNCCO2)nc1` [Example 132, (2S)-2-[(S)-(2-cyclopentylphenoxy)(pyridin-2-yl)methyl]morpholine], the inhibitory constant (Ki) was 18 nM in data set [1] and 6120 nM in data set [2].

Regarding `Fc1ccc([C@H](Oc2ccccc2F)[C@H]2CNCCO2)cc1` [Example 34, (R)-2-[(S)-(2-Fluoro-phenoxy)-(4-fluoro-phenyl)-methyl]-morpholine], the Ki turned out to be 141 nM in data set [1] and 184 nM in data set [2].

On to `CCOc1ccccc1O[C@@H](C1CCCCC1)[C@@H]1CNCCO1` [Example 51, (S)-2-[(S)-Cyclohexyl-(2-ethoxy-phenoxy)-methyl]-morpholine], for which the Ki in data set [1] was 16 nM; in data set [2], at least 10000 nM.

Turning to `CS(=O)(=O)c1ccccc1O[C@@H](c1ccccc1)[C@@H]1CNCCO1` [Example 54, (S)-2-[(S)-(2-Methanesulfonyl-phenoxy)-phenyl-methyl]-morpholine], the results for the inhibitory constant (Ki) in data set [1] and in data set [2] were 1310 nM and at least 10000 nM, respectively.
